Reference: patent US8569336B2, “Compounds for the treatment of inflammatory disorders” (priority 2008, dated 2013)

System: not listed separately
Test: Area under the curve determinations of plasma levels in rats (rrAUC), oral 10 mg/kg
Format: in vivo
Details: rat, plasma 0.5-6 h, read-out: RR AUC (rapid rat AUC, rrAUC)

Structure (SMILES)	AUC [µM·h]
CCN1CCN(c2ccc3oc([C@]4(CN5Cc6ccc(OC)c(F)c6C5=O)NC(=O)NC4=O)cc3n2)CC1 [Compound 1705]	1.2
COc1ccc2c(c1F)C(=O)N(C[C@@]1(c3cc4nc(Nc5ccc(-c6cn[nH]c6)cn5)ccc4o3)NC(=O)NC1=O)C2 [Compound 1734]	0.068
COc1ccc2c(c1F)C(=O)N(C[C@@]1(c3cc4ncc(C(=O)NC5CC5)cc4o3)NC(=O)NC1=O)C2 [Compound 1909]	0.066
COc1ccc2c(c1F)C(=O)N(C[C@@]1(c3cc4cc(C)ncc4o3)NC(=O)NC1=O)C2 [Compound 305]	19.1
COc1ccc2c(c1F)C(=O)N(C[C@@]1(c3cc4nc(Cl)c(F)cc4o3)NC(=O)NC1=O)C2 [Compound 1328]	5.61

Results, then the compound that gave them:

AUC [µM·h]	Structure (SMILES)
1	CCOc1ccc2c(c1F)C(=O)N(C[C@@]1(c3cc4nc(N5CCN(CC)CC5)ccc4o3)NC(=O)NC1=O)C2 [Compound 903]
5.19	COc1ccc2c(c1F)C(=O)N(C[C@@]1(c3cc4nc(N5C(=O)CCC5C)ccc4o3)NC(=O)NC1=O)C2 (stereo partly drawn) [Compound 1510]
0.351	COc1ccc2c(c1F)C(=O)N(C[C@@]1(c3cc4nc(N)ccc4o3)NC(=O)NC1=O)C2 [Compound 1910]
8	COc1ccc2c(c1F)C(=O)N(C[C@@]1(c3cc4nc(-n5cccn5)ccc4o3)NC(=O)NC1=O)C2 [Compound 1524]

Same assay, conditions: rat, plasma 0.5-6 h post-dosing, read-out: RR AUC (rapid rat AUC, rrAUC)

Structure (SMILES)	AUC [µM·h]
COc1ccc2c(c1)C(=O)N(C[C@@]1(c3cc4nc(Nc5cccnc5)ccc4o3)NC(=O)NC1=O)C2 [Compound 2130]	0.072
CC[C@@H]1CN(c2ccc3oc([C@]4(CN5Cc6ccc(OC)cc6C5=O)NC(=O)NC4=O)cc3n2)CCN1 [Compound 2124]	0.014
COc1ccc2c(c1)C(=O)N(C[C@@]1(c3cc4cc(-c5cc(N)n(C)n5)ccc4o3)NC(=O)NC1=O)C2 [Compound 2247]	0.375
COc1ccc2c(c1)C(=O)N(C[C@@]1(c3cc4cc(C5(C)NC(=O)NC5=O)c(C)cc4o3)NC(=O)NC1=O)C2 (stereo partly drawn) [Compound 2207]	0.063
COc1ccc2c(c1)C(=O)N(C[C@@]1(c3cc4cc(-c5cc[nH]n5)ccc4o3)NC(=O)NC1=O)C2 [Compound 2219]	1.02

Other lines, results leading:

AUC [µM·h]	Structure (SMILES)
2.71	COc1ccc2c(c1)C(=O)N(C[C@@]1(c3cc4nc(NC5CCN(C)CC5)ccc4o3)NC(=O)NC1=O)C2 [Compound 2141]
7	COc1ccc2c(c1F)C(=O)N(C[C@@]1(c3cc4nc(-c5c(C)nn(C)c5C)ccc4o3)NC(=O)NC1=O)C2 [Compound 2119]
0.349	COc1ccc2c(c1)C(=O)N(C[C@@]1(c3cc4nc(-c5cnn(CC(C)C)c5)ccc4o3)NC(=O)NC1=O)C2 [Compound 2115]

Biological target: T1, purified catalytic domain of recombinant human TACE (rhTACEc) (Homo sapiens, UniProt P78536, N452Q/S266A)
T1 construct: 6xHis (C); made in house; host or cells: baculovirus/Hi5 insect cells
T1 sequence (P78536 215-477 S266A/N452Q): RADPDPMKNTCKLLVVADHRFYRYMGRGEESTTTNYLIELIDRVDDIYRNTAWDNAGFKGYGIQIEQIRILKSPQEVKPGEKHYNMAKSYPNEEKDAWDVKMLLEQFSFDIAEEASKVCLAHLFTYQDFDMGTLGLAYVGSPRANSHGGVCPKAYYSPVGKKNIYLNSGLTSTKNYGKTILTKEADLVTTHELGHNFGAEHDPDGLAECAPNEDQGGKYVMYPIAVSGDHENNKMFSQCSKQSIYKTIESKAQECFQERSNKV
Test: TACE kinetic assay: cleavage of internally quenched peptide substrate TNF-FRET 2 (Ki)
Format: biochemical
Details: Ki, TNF-FRET 2 substrate

Structure (SMILES)	Ki [nM]
COc1ccc2c(c1)C(=O)N(C[C@@]1(c3cc4nc(Nc5cccnc5)ccc4o3)NC(=O)NC1=O)C2 [Compound 2130]	0.629
COc1ccc2c(c1)C(=O)N(C[C@@]1(c3cc4cc(-c5cc(N)n(C)n5)ccc4o3)NC(=O)NC1=O)C2 [Compound 2247]	0.333
COc1ccc2c(c1F)C(=O)N(C[C@@]1(c3cc4nc(Cl)c(F)cc4o3)NC(=O)NC1=O)C2 [Compound 1328]	0.49

Same assay, conditions: TNF-FRET 2 substrate, read-out: Ki

Structure (SMILES)	Ki [nM]
CC[C@@H]1CN(c2ccc3oc([C@]4(CN5Cc6ccc(OC)cc6C5=O)NC(=O)NC4=O)cc3n2)CCN1 [Compound 2124]	1.09
CCN1CCN(c2ccc3oc([C@]4(CN5Cc6ccc(OC)c(F)c6C5=O)NC(=O)NC4=O)cc3n2)CC1 [Compound 1705]	0.82
COc1ccc2c(c1)C(=O)N(C[C@@]1(c3cc4cc(C5(C)NC(=O)NC5=O)c(C)cc4o3)NC(=O)NC1=O)C2 (stereo partly drawn) [Compound 2207]	0.813
COc1ccc2c(c1)C(=O)N(C[C@@]1(c3cc4cc(-c5cc[nH]n5)ccc4o3)NC(=O)NC1=O)C2 [Compound 2219]	0.682
COc1ccc2c(c1F)C(=O)N(C[C@@]1(c3cc4nc(Nc5ccc(-c6cn[nH]c6)cn5)ccc4o3)NC(=O)NC1=O)C2 [Compound 1734]	1.92
COc1ccc2c(c1F)C(=O)N(C[C@@]1(c3cc4ncc(C(=O)NC5CC5)cc4o3)NC(=O)NC1=O)C2 [Compound 1909]	1.15
COc1ccc2c(c1F)C(=O)N(C[C@@]1(c3cc4cc(C)ncc4o3)NC(=O)NC1=O)C2 [Compound 305]	0.64

The next lines start with the values.

Ki [nM]	Structure (SMILES)
0.599	COc1ccc2c(c1)C(=O)N(C[C@@]1(c3cc4nc(NC5CCN(C)CC5)ccc4o3)NC(=O)NC1=O)C2 [Compound 2141]
0.557	CCOc1ccc2c(c1F)C(=O)N(C[C@@]1(c3cc4nc(N5CCN(CC)CC5)ccc4o3)NC(=O)NC1=O)C2 [Compound 903]
0.4	COc1ccc2c(c1F)C(=O)N(C[C@@]1(c3cc4nc(N5C(=O)CCC5C)ccc4o3)NC(=O)NC1=O)C2 (stereo partly drawn) [Compound 1510]
0.39	COc1ccc2c(c1F)C(=O)N(C[C@@]1(c3cc4nc(-c5c(C)nn(C)c5C)ccc4o3)NC(=O)NC1=O)C2 [Compound 2119]
0.34	COc1ccc2c(c1F)C(=O)N(C[C@@]1(c3cc4nc(N)ccc4o3)NC(=O)NC1=O)C2 [Compound 1910]
0.3	COc1ccc2c(c1F)C(=O)N(C[C@@]1(c3cc4nc(-n5cccn5)ccc4o3)NC(=O)NC1=O)C2 [Compound 1524]
0.193	COc1ccc2c(c1)C(=O)N(C[C@@]1(c3cc4nc(-c5cnn(CC(C)C)c5)ccc4o3)NC(=O)NC1=O)C2 [Compound 2115]

System: TNF-α production from human whole blood
Test: Inhibition of TNF-α production from human whole blood (hWBA), LPS stimulated, ELISA
Format: cell-based
Details: Homo sapiens, 3.5 h, human whole blood diluted 1:1, LPS stimulated, 3.5 h, TNF-α by ELISA; read-out: hWBA (IC50)

Structure (SMILES)	IC50 [nM]
COc1ccc2c(c1)C(=O)N(C[C@@]1(c3cc4nc(Nc5cccnc5)ccc4o3)NC(=O)NC1=O)C2 [Compound 2130]	163
CC[C@@H]1CN(c2ccc3oc([C@]4(CN5Cc6ccc(OC)cc6C5=O)NC(=O)NC4=O)cc3n2)CCN1 [Compound 2124]	270
COc1ccc2c(c1)C(=O)N(C[C@@]1(c3cc4cc(-c5cc(N)n(C)n5)ccc4o3)NC(=O)NC1=O)C2 [Compound 2247]	782
COc1ccc2c(c1)C(=O)N(C[C@@]1(c3cc4cc(C5(C)NC(=O)NC5=O)c(C)cc4o3)NC(=O)NC1=O)C2 (stereo partly drawn) [Compound 2207]	310
COc1ccc2c(c1)C(=O)N(C[C@@]1(c3cc4cc(-c5cc[nH]n5)ccc4o3)NC(=O)NC1=O)C2 [Compound 2219]	1390

The remaining lines, values ahead:

IC50 [nM]	Structure (SMILES)
381	COc1ccc2c(c1)C(=O)N(C[C@@]1(c3cc4nc(NC5CCN(C)CC5)ccc4o3)NC(=O)NC1=O)C2 [Compound 2141]
243	COc1ccc2c(c1F)C(=O)N(C[C@@]1(c3cc4nc(-c5c(C)nn(C)c5C)ccc4o3)NC(=O)NC1=O)C2 [Compound 2119]
968	COc1ccc2c(c1)C(=O)N(C[C@@]1(c3cc4nc(-c5cnn(CC(C)C)c5)ccc4o3)NC(=O)NC1=O)C2 [Compound 2115]

Same assay, conditions: Homo sapiens, LPS-stimulated human whole blood, TNF-α by ELISA; read-out: hWBA (IC50)

Structure (SMILES)	IC50 [nM]
CCN1CCN(c2ccc3oc([C@]4(CN5Cc6ccc(OC)c(F)c6C5=O)NC(=O)NC4=O)cc3n2)CC1 [Compound 1705]	137
COc1ccc2c(c1F)C(=O)N(C[C@@]1(c3cc4nc(Nc5ccc(-c6cn[nH]c6)cn5)ccc4o3)NC(=O)NC1=O)C2 [Compound 1734]	289
COc1ccc2c(c1F)C(=O)N(C[C@@]1(c3cc4ncc(C(=O)NC5CC5)cc4o3)NC(=O)NC1=O)C2 [Compound 1909]	585
COc1ccc2c(c1F)C(=O)N(C[C@@]1(c3cc4cc(C)ncc4o3)NC(=O)NC1=O)C2 [Compound 305]	241
COc1ccc2c(c1F)C(=O)N(C[C@@]1(c3cc4nc(Cl)c(F)cc4o3)NC(=O)NC1=O)C2 [Compound 1328]	2680

Continued, values first:

IC50 [nM]	Structure (SMILES)
193	CCOc1ccc2c(c1F)C(=O)N(C[C@@]1(c3cc4nc(N5CCN(CC)CC5)ccc4o3)NC(=O)NC1=O)C2 [Compound 903]
263	COc1ccc2c(c1F)C(=O)N(C[C@@]1(c3cc4nc(N5C(=O)CCC5C)ccc4o3)NC(=O)NC1=O)C2 (stereo partly drawn) [Compound 1510]
153	COc1ccc2c(c1F)C(=O)N(C[C@@]1(c3cc4nc(N)ccc4o3)NC(=O)NC1=O)C2 [Compound 1910]
557	COc1ccc2c(c1F)C(=O)N(C[C@@]1(c3cc4nc(-n5cccn5)ccc4o3)NC(=O)NC1=O)C2 [Compound 1524]
